# Data: patent publication US4336263A, “1,4-Cycloalkano-oxazepines, salts thereof and analgesic uses thereof” (priority 1978, dated 1982)
# Where two headings read alike, the source gives them in different places.
# How the values were obtained:
# [1] = acute lethal dose (LD 50) for intraperitoneal administration; assay type: in vivo; conditions: for Relative toxicity: Nefopam = 1.00
# Excerpt: The comparatively low toxicity of the novel compounds can also be deduced from the acute lethal dose (LD 50) for intraperitoneal administration (Table 2). The LD 50 values are from about 90% to 240% higher than those of Nefopam.
# [2] = test system: female mice (NMRI strain); assay: animal or person; assay type: in vivo; conditions: for ED (100%): Mus musculus, 0.5 h; for ED (100%) / ED 100% (dose which increases the reaction time by 100%): 30 minutes after administration; for Q (enteral activity: quotient of ED 100% for intraperitoneal and oral administration): i.p. ED 100% / oral ED 100%, 30 min; for Maximum action, Δ% (increase in reaction time): maximum increase without fatalities
# Protocol: (§1) The model used for testing the analgesic action was the tail flick test of D'AMOUR and SMITH (J. Pharmacol. 72 (1941), 74-79). In this experiment, the compounds to be tested were administered intraperitoneally or orally, as aqueous solutions (injection volume 10 ml/kg) to groups of 10 female mice (NMRI strain) weighing 20-22 g each.
# (§2) Pain reactions are caused before, and 30 minutes after, the administration of the compound, by means of thermal irritation (the tail being exposed to focused heat radiation from a halogen lamp for at most 30 seconds).
# (§3) The time until the tail is drawn out of the radiation zone by reflex action is measured, and taken as the reaction time. Its average value, for 670 untreated animals, is 6.5±0.29 sec.
# (§4) Analgesic substances increase the reaction time, to an extent depending on the dose. There is a linear relationship between the logarithms of the doses (mg/kg) and of the relative increase in reaction time (Δ%), from which the dose, defined as the ED 100%, which doubles the reaction time can be calculated by means of regression analysis. For a radiation exposure period of at most 30 seconds, the maximum possible increase in the reaction time is about 360%.
# in vivo = assay type: in vivo, mice (NMRI strain); conditions: mouse, in vivo, read-out: treated animals killed
# Protocol: as §1, §2, §3, §4
# [3] = ip, read-out: ED 100% (dose which increases the reaction time by 100%), intraperitoneal administration
# [4] = po, read-out: ED 100% (dose which increases the reaction time by 100%), oral administration
# [5] = intraperitoneal administration, Nefopam = 1.00
# [6] = intraperitoneal administration, dose of maximum action
# [7] = oral administration, Nefopam = 1.00
# [8] = oral administration, dose of maximum action
smiles,measurement,setting,value
"CN1CCO[C@]2(c3cccc(O)c3)CCCC[C@@H]2C1 (relative stereo) [Example 7, 4-Methyl-9a-(3-hydroxyphenyl)-perhydro-1,4-benzoxazepine]",Relative toxicity,[1],0.35
same,LD50,"[1]; in vivo, ip, read-out: LD 50",165 mg/kg
same,ED (100%),[2]; [3],6.55 mg/kg
same,ED (100%),[2]; [4],18.6 mg/kg
same,Q (enteral activity: quotient of ED 100% for intraperitoneal and oral administration),[2],0.35
same,relative activity,[2]; [5],1.23
same,"Maximum action, mg/kg (dose)",[2]; [6],46.4 mg/kg
same,"Maximum action, Δ% (increase in reaction time)",[2]; intraperitoneal administration,364%
same,relative activity,[2]; [7],2.50
same,"Maximum action, mg/kg (dose)",[2]; [8],46.4 mg/kg
same,"Maximum action, Δ% (increase in reaction time)",[2]; oral administration,332%
"COc1cccc([C@@]23CCCC[C@@H]2CN(C)CCO3)c1 (relative stereo) [Example 3, 4-methyl-9a-(3-methoxyphenyl)-perhydro-1,4-benzoxazepine]",Relative toxicity,[1],0.52
same,LD50,"[1]; in vivo, ip, read-out: LD 50",110 mg/kg
same,ED (100%),[2]; [3],11.4 mg/kg
same,ED (100%),[2]; [4],17 mg/kg
same,Q (enteral activity: quotient of ED 100% for intraperitoneal and oral administration),[2],0.67
same,relative activity,[2]; [5],0.71
same,"Maximum action, mg/kg (dose)",[2]; [6],46.4 mg/kg
same,"Maximum action, Δ% (increase in reaction time)",[2]; intraperitoneal administration,416%
same,relative activity,[2]; [7],2.73
same,"Maximum action, mg/kg (dose)",[2]; [8],100 mg/kg
same,"Maximum action, Δ% (increase in reaction time)",[2]; oral administration,397%
"COc1cccc([C@@]23CCCC[C@@H]2CN(C)CCO3)c1 (single isomer, unassigned) [9 (+), (+)-4-Methyl-9a-(3-methoxyphenyl)-perhydro-1,4-benzoxazepine]",LD50,[1],110 mg/kg
same,Relative toxicity,[1],0.52
same,Q (enteral activity: quotient of ED 100% for intraperitoneal and oral administration),[2],0.71
same,ED 100% (dose which increases the reaction time by 100%),[2]; intraperitoneal administration,16.7 mg/kg
same,relative activity,[2]; [5],0.48
same,"Maximum action, mg/kg (dose)",[2]; [6],46.4 mg/kg
same,"Maximum action, Δ% (increase in reaction time)",[2]; intraperitoneal administration,249%
same,ED 100% (dose which increases the reaction time by 100%),[2]; oral administration,23.5 mg/kg
same,relative activity,[2]; [7],1.97
same,"Maximum action, mg/kg (dose)",[2]; [8],100 mg/kg
same,"Maximum action, Δ% (increase in reaction time)",[2]; oral administration,370%
"CC(=O)Oc1cccc([C@@]23CCCC[C@@H]2CN(C)CCO3)c1 (relative stereo) [Example 7 β, 4-Methyl-9a-(3-acetoxyphenyl)-perhydro-1,4-benzoxazepine]",Relative toxicity,[1],0.30
same,LD50,"[1]; in vivo, ip, read-out: LD 50",194 mg/kg
same,ED (100%),[2]; [3],12.6 mg/kg
same,ED (100%),[2]; [4],13.1 mg/kg
same,Q (enteral activity: quotient of ED 100% for intraperitoneal and oral administration),[2],0.96
same,"Maximum action, Δ% (increase in reaction time)",[2]; intraperitoneal administration,275%
same,"Maximum action, mg/kg (dose)","[2]; mouse, in vivo, ip",46.4 mg/kg
same,relative activity,"[2]; mouse, in vivo, ip",0.64
same,"Maximum action, mg/kg (dose)","[2]; mouse, in vivo, po",100 mg/kg
same,relative activity,[2]; [7],3.54
same,"Maximum action, Δ% (increase in reaction time)",[2]; oral administration,280%
COc1cccc([C@@]23CCC[C@@H]2CN(C)CCO3)c1 (relative stereo) [Example 6],Relative toxicity,[1],0.45
same,LD50,"[1]; in vivo, ip, read-out: LD 50",127 mg/kg
same,ED (100%),[2]; [3],4.66 mg/kg
same,ED (100%),[2]; [4],9.49 mg/kg
same,Q (enteral activity: quotient of ED 100% for intraperitoneal and oral administration),[2],0.49
same,relative activity,[2]; [5],1.73
same,"Maximum action, mg/kg (dose)",[2]; [6],46.4 mg/kg
same,"Maximum action, Δ% (increase in reaction time)",[2]; intraperitoneal administration,380%
same,relative activity,[2]; [7],4.89
same,"Maximum action, mg/kg (dose)",[2]; [8],46.4 mg/kg
same,"Maximum action, Δ% (increase in reaction time)",[2]; oral administration,364%
"CN1CCOC(c2ccccc2)c2ccccc2C1 (centres unmarked) [Nefopam, 5-methyl-1-phenyl-3,4,5,6-tetrahydro-1H-benz[f]-2,5-oxazocine, reference compound]",Relative toxicity,[1],1.00
same,LD50,"[1]; in vivo, ip, read-out: LD 50",57.3 mg/kg
same,animals died,[2]; 46.4 mg/kg intraperitoneally,6 out of 10 animals
same,animals died,[2]; 100 mg/kg orally,6 out of 10 animals
same,ED (100%),"[2]; oral administration, read-out: ED 100% (dose which increases the reaction time by 100%)",46.4 mg/kg
same,ED (100%),"[2]; ip, intraperitoneal administration, read-out: ED 100% (dose which increases the reaction time by 100%)",8.08 mg/kg
same,Q (enteral activity: quotient of ED 100% for intraperitoneal and oral administration),[2],0.17
same,"Maximum action, mg/kg (dose)",[2]; [6],21.5 mg/kg
same,"Maximum action, Δ% (increase in reaction time)",[2]; intraperitoneal administration,192%
same,relative activity,[2]; [7],1.00
same,"Maximum action, mg/kg (dose)",[2]; [8],46.4 mg/kg
same,"Maximum action, Δ% (increase in reaction time)",[2]; oral administration,93%
same,mortality,"in vivo; ip, 46.4 mg/kg administered intraperitoneally",60%
same,mortality,"in vivo; po, 100 mg/kg administered orally",60%
"COc1cccc([C@@]23CCCC[C@@H]2CN(C)CCO3)c1 (single isomer, unassigned) [9 (-), (-)-4-Methyl-9a-(3-methoxyphenyl)-perhydro-1,4-benzoxazepine]",Relative toxicity,[1],0.40
same,LD50,"[1]; in vivo, ip, read-out: LD 50",145 mg/kg
same,ED (100%),[2]; [3],11 mg/kg
same,ED (100%),[2]; [4],17.6 mg/kg
same,Q (enteral activity: quotient of ED 100% for intraperitoneal and oral administration),[2],0.63
same,"Maximum action, Δ% (increase in reaction time)",[2]; intraperitoneal administration,348%
same,"Maximum action, mg/kg (dose)","[2]; mouse, in vivo, ip",46.4 mg/kg
same,relative activity,"[2]; mouse, in vivo, ip",0.74
same,"Maximum action, mg/kg (dose)","[2]; mouse, in vivo, po",100 mg/kg
same,relative activity,[2]; [7],2.64
same,"Maximum action, Δ% (increase in reaction time)",[2]; oral administration,397%
